{
  "source": "paper PMC9234961",
  "about": "(Journal of Medicinal Chemistry, 2022)",
  "key": {"kinases (468) [1]": {"molecular_target": "kinases (468) (Homo sapiens, UniProt P17612)", "conditions": "PKAC-alpha (PRKACA); 1000 nM"}, "kinases (468) [2]": {"molecular_target": "kinases (468) (Homo sapiens, UniProt P78368)", "conditions": "CSNK1G2; 1000 nM"}, "kinases (468) [3]": {"molecular_target": "kinases (468) (Homo sapiens, UniProt P54756)", "conditions": "EPHA5; 1000 nM"}, "kinases (468) [4]": {"molecular_target": "kinases (468) (Homo sapiens, UniProt Q9Y243)", "conditions": "AKT3; 1000 nM"}, "kinases (468) [5]": {"molecular_target": "kinases (468) (Homo sapiens, UniProt P42685)", "sequence (P42685 whole entry)": "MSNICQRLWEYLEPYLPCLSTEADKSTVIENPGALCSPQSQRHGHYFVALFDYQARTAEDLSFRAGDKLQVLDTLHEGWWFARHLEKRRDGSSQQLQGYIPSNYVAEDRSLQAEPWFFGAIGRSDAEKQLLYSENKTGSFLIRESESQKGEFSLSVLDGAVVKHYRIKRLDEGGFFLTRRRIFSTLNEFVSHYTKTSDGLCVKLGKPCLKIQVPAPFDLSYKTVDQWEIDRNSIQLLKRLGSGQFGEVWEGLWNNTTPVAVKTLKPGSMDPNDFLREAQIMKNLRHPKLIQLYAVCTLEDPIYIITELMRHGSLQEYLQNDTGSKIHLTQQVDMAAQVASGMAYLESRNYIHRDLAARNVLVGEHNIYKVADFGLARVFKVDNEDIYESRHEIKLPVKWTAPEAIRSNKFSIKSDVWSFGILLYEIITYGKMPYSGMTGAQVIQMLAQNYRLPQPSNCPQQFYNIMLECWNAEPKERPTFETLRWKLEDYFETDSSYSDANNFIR", "conditions": "FRK; 1000 nM"}, "kinases (468) [6]": {"molecular_target": "kinases (468) (Homo sapiens, UniProt P42336, M1043I)", "conditions": "PIK3CA(M1043I); 1000 nM"}, "kinases (468) [7]": {"molecular_target": "kinases (468) (Homo sapiens, UniProt Q8NEB9)", "conditions": "kinase VPS34 (Entrez PIK3C3); compound concentration 1000 nM"}, "kinases (468) [8]": {"molecular_target": "kinases (468) (Homo sapiens, UniProt Q9BQI3)", "conditions": "EIF2AK1; 1000 nM"}, "kinases (468) [9]": {"molecular_target": "kinases (468) (Homo sapiens, UniProt Q8NFD2)", "conditions": "ANKK1; 1000 nM"}, "kinases (468) [10]": {"molecular_target": "kinases (468) (Homo sapiens, UniProt Q9Y2H9)", "conditions": "MAST1; 1000 nM"}, "kinases (468) [11]": {"molecular_target": "kinases (468) (Homo sapiens, UniProt P52333)", "sequence (P52333 whole entry)": "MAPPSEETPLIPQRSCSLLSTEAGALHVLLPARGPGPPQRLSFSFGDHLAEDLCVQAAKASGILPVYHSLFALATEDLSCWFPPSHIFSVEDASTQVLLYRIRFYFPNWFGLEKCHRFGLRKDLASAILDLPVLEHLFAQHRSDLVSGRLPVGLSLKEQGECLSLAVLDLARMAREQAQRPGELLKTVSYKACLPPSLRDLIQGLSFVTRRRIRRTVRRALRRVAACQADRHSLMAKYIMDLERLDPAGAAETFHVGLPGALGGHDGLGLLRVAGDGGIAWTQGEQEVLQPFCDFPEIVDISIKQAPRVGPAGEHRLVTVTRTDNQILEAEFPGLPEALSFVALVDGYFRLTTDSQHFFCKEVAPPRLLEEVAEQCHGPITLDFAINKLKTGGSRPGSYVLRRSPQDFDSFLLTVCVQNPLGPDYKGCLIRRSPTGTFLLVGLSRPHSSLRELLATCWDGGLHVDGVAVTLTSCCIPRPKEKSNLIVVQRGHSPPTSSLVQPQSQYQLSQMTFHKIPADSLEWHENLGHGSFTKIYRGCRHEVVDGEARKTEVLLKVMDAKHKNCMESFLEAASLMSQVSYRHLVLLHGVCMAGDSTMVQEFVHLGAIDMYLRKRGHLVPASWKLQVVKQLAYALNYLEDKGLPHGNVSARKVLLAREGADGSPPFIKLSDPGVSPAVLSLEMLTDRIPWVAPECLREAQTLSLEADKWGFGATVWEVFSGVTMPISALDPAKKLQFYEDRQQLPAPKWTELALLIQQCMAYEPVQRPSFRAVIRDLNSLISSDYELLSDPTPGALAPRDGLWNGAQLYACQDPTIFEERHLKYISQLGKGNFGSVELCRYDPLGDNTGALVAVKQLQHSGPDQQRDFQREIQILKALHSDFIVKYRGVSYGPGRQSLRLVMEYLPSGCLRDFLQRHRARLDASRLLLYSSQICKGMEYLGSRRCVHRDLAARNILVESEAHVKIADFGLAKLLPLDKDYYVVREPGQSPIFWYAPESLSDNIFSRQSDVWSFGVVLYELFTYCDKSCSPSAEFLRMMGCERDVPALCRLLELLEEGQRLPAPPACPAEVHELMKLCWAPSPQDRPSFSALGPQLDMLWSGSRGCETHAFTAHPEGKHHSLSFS", "conditions": "JAK3(JH1domain-catalytic); 1000 nM"}, "kinases (468) [12]": {"molecular_target": "kinases (468) (Homo sapiens, UniProt P37173)", "conditions": "kinase TGFBR2 (Entrez TGFBR2); compound concentration 1000 nM"}, "kinases (468) [13]": {"molecular_target": "kinases (468) (Homo sapiens, UniProt Q96Q40)", "conditions": "PFTAIRE2 (CDK15); 1000 nM"}, "kinases (468) [14]": {"molecular_target": "kinases (468) (Homo sapiens, UniProt Q13554)", "conditions": "CAMK2B; 1000 nM"}, "kinases (468) [15]": {"molecular_target": "kinases (468) (Homo sapiens, UniProt O75460)", "conditions": "ERN1; 1000 nM"}, "kinases (468) [16]": {"molecular_target": "kinases (468) (Homo sapiens, UniProt O75716)", "conditions": "kinase STK16 (Entrez STK16); compound concentration 1000 nM"}, "kinases (468) [17]": {"molecular_target": "kinases (468) (Homo sapiens, UniProt Q9NYL2)", "sequence (Q9NYL2 whole entry)": "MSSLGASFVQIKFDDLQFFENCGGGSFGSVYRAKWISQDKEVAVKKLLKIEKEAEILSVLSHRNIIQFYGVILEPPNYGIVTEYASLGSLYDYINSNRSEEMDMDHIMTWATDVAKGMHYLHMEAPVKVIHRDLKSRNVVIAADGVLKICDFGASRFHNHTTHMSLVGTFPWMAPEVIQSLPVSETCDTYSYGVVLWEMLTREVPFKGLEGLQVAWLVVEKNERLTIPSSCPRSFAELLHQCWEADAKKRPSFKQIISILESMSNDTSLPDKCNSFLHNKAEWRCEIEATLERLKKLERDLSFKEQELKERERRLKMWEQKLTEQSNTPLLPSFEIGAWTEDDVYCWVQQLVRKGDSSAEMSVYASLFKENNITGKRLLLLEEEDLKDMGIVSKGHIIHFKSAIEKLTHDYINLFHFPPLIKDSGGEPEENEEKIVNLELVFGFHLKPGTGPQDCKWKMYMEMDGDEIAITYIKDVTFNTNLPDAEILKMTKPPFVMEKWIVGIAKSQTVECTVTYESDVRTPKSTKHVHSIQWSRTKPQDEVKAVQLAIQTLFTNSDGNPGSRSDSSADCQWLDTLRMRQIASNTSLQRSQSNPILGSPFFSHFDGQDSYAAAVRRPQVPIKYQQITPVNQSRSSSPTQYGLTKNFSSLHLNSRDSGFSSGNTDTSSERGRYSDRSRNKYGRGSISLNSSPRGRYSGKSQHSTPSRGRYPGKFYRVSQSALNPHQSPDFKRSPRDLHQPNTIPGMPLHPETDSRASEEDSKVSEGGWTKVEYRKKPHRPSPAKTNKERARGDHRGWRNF", "conditions": "kinase ZAK (Entrez ZAK); compound concentration 1000 nM"}, "kinases (468) [18]": {"molecular_target": "kinases (468) (Homo sapiens, UniProt Q14680)", "sequence (Q14680 whole entry)": "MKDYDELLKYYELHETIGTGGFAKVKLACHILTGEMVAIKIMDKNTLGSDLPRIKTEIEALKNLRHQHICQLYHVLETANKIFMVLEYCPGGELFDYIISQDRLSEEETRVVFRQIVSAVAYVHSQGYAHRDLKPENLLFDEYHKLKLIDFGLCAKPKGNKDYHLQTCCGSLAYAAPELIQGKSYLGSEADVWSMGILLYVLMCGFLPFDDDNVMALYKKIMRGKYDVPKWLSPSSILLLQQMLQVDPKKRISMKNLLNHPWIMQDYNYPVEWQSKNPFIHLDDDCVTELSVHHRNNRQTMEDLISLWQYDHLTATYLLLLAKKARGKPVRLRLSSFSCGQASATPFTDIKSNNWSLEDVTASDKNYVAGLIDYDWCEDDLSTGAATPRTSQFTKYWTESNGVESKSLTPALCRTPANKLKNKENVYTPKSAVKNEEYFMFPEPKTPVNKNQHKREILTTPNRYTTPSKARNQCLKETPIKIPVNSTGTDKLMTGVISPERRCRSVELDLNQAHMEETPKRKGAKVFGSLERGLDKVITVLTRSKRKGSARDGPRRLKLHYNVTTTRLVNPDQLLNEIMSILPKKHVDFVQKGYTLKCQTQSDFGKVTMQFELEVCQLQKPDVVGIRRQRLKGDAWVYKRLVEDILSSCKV", "conditions": "MELK; 1000 nM"}, "kinases (468) [19]": {"molecular_target": "kinases (468) (Homo sapiens, UniProt P10721, V559D)", "conditions": "KIT(V559D); 1000 nM"}, "kinases (468) [20]": {"molecular_target": "kinases (468) (Homo sapiens, UniProt Q13177)", "sequence (Q13177 whole entry)": "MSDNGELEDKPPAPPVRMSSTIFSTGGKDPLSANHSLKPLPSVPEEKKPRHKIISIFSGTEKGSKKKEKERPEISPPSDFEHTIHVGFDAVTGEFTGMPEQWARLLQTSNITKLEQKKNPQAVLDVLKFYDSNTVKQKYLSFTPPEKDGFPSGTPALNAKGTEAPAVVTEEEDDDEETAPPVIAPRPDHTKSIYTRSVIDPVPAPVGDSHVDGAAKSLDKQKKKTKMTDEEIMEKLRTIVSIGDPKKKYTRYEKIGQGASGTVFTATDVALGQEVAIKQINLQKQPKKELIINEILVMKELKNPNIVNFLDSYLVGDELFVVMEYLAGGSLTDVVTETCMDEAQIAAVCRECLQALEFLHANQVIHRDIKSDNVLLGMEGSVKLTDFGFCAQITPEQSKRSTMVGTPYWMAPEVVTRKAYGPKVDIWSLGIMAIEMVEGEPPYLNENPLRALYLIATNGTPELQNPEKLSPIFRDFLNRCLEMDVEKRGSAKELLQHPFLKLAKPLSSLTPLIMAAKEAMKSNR", "conditions": "PAK2; 1000 nM"}, "kinases (468) [21]": {"molecular_target": "kinases (468) (Homo sapiens, UniProt P00519, Q252H)", "conditions": "1000 nM"}, "kinases (468) [22]": {"molecular_target": "kinases (468) (Homo sapiens, UniProt Q5VT25)", "conditions": "MRCKA (CDC42BPA); 1000 nM"}, "kinases (468) [23]": {"molecular_target": "kinases (468) (Homo sapiens, UniProt O75116)", "sequence (O75116 whole entry)": "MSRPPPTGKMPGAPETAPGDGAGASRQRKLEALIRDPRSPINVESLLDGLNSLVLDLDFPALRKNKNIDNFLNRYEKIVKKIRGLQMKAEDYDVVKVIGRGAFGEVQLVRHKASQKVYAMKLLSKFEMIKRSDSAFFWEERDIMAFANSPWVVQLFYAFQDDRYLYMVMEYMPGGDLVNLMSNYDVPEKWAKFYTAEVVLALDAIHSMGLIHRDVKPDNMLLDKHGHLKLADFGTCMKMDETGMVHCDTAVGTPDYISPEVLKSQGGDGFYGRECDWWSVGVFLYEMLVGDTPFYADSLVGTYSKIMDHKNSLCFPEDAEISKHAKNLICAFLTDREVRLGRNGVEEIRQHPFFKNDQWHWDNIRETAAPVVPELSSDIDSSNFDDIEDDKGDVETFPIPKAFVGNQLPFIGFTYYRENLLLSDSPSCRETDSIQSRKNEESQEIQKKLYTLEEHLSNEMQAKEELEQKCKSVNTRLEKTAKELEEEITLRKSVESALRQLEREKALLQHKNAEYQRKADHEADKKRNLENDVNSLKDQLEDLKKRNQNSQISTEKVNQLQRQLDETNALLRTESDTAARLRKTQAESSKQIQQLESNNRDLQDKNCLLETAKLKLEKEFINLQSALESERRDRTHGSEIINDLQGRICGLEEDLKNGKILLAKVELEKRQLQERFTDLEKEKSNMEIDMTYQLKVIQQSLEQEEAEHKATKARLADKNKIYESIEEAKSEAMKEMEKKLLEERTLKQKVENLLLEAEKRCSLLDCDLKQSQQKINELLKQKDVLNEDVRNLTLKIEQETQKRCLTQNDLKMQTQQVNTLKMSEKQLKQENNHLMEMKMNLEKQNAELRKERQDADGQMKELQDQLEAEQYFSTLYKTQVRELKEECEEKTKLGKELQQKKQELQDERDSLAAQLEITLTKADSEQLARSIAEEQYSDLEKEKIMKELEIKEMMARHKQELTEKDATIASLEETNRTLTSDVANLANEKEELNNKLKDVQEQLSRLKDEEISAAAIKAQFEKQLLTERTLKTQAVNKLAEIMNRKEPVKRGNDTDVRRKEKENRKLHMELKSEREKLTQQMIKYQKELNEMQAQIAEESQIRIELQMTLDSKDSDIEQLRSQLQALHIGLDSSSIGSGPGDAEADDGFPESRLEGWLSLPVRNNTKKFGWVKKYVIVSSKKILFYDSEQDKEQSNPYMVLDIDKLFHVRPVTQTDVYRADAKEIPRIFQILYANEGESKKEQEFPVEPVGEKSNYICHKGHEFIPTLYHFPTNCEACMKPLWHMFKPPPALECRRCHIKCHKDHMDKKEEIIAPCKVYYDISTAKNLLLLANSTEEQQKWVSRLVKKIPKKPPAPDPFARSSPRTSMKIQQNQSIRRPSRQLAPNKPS", "conditions": "kinase ROCK2 (Entrez ROCK2); compound concentration 1000 nM"}, "kinases (468) [24]": {"molecular_target": "kinases (468) (Homo sapiens, UniProt P24941)", "conditions": "CDK2; 1000 nM"}, "kinases (468) [25]": {"molecular_target": "kinases (468) (Homo sapiens, UniProt Q07912)", "conditions": "kinase TNK2 (Entrez TNK2); compound concentration 1000 nM"}, "kinases (468) [26]": {"molecular_target": "kinases (468) (Homo sapiens, UniProt O94806)", "conditions": "PRKD3; 1000 nM"}, "kinases (468) [27]": {"molecular_target": "kinases (468) (Homo sapiens, UniProt Q9Y4K4)", "conditions": "MAP4K5; 1000 nM"}, "kinases (468) [28]": {"molecular_target": "kinases (468) (Homo sapiens, UniProt O43353)", "conditions": "kinase RIPK2 (Entrez RIPK2); compound concentration 1000 nM"}, "kinases (468) [29]": {"molecular_target": "kinases (468) (Homo sapiens, UniProt O15264)", "conditions": "p38-delta (MAPK13); 1000 nM"}, "kinases (468) [30]": {"molecular_target": "kinases (468) (Homo sapiens, UniProt Q9H3Y6)", "conditions": "kinase SRMS (Entrez SRMS); compound concentration 1000 nM"}, "kinases (468) [31]": {"molecular_target": "kinases (468) (Homo sapiens, UniProt Q9Y2K2)", "conditions": "QSK (KIAA0999); 1000 nM"}, "kinases (468) [32]": {"molecular_target": "kinases (468) (Homo sapiens, UniProt Q13555)", "conditions": "CAMK2G; 1000 nM"}, "kinases (468) [33]": {"molecular_target": "kinases (468) (Homo sapiens, UniProt P04626)", "conditions": "ERBB2; 1000 nM"}, "kinases (468) [34]": {"molecular_target": "kinases (468) (Homo sapiens, UniProt P22607, G697C)", "conditions": "FGFR3(G697C); 1000 nM"}},
  "note": "Where two headings read alike, the source gives them in different places.",
  "data": [
    {"smiles": "C[C@H]1C[C@@H](O)CN(c2ncc(Cl)c(Nc3ccc4c(c3)c3c(c(=O)n4C)OCC(F)(F)[C@H](C4CC4)N3)n2)C1", "note": "[CCT373566_9A]", "values": [
      {"measurement": "Percent Control", "setting": "kinases (468) [1]", "value": 100, "unit": "%"},
      {"measurement": "Percent Control", "setting": "kinases (468) [2]", "value": 99, "unit": "%"},
      {"measurement": "Percent Control", "setting": "kinases (468) [3]", "value": 98, "unit": "%"},
      {"measurement": "Percent Control", "setting": "kinases (468) [4]", "value": 93, "unit": "%"},
      {"measurement": "Percent Control", "setting": "kinases (468) [5]", "value": 100, "unit": "%"},
      {"measurement": "Percent Control", "setting": "kinases (468) [6]", "value": 89, "unit": "%"},
      {"measurement": "Percent Control", "setting": "kinases (468) [7]", "value": 80, "unit": "%"},
      {"measurement": "Percent Control", "setting": "kinases (468) [8]", "value": 72, "unit": "%"},
      {"measurement": "Percent Control", "setting": "kinases (468) [9]", "value": 95, "unit": "%"},
      {"measurement": "Percent Control", "setting": "kinases (468) [10]", "value": 100, "unit": "%"},
      {"measurement": "Percent Control", "setting": "kinases (468) [11]", "value": 78, "unit": "%"},
      {"measurement": "Percent Control", "setting": "kinases (468) [12]", "value": 100, "unit": "%"},
      {"measurement": "Percent Control", "setting": "kinases (468) [13]", "value": 98, "unit": "%"},
      {"measurement": "Percent Control", "setting": "kinases (468) [14]", "value": 76, "unit": "%"},
      {"measurement": "Percent Control", "setting": "kinases (468) [15]", "value": 92, "unit": "%"},
      {"measurement": "Percent Control", "setting": "kinases (468) [16]", "value": 88, "unit": "%"},
      {"measurement": "Percent Control", "setting": "kinases (468) [17]", "value": 98, "unit": "%"},
      {"measurement": "Percent Control", "setting": "kinases (468) [18]", "value": 100, "unit": "%"},
      {"measurement": "Percent Control", "setting": "kinases (468) [19]", "value": 100, "unit": "%"},
      {"measurement": "Percent Control", "setting": "kinases (468) [20]", "value": 100, "unit": "%"},
      {"measurement": "Percent Control", "setting": "kinases (468) [21]; ABL1(Q252H)-nonphosphorylated", "value": 94, "unit": "%"},
      {"measurement": "Percent Control", "setting": "kinases (468) [21]; ABL1(Q252H)-phosphorylated", "value": 98, "unit": "%"},
      {"measurement": "Percent Control", "setting": "kinases (468) [22]", "value": 99, "unit": "%"},
      {"measurement": "Percent Control", "setting": "kinases (468) [23]", "value": 94, "unit": "%"},
      {"measurement": "Percent Control", "setting": "kinases (468) [24]", "value": 96, "unit": "%"},
      {"measurement": "Percent Control", "setting": "kinases (468) [25]", "value": 93, "unit": "%"},
      {"measurement": "Percent Control", "setting": "kinases (468) [26]", "value": 75, "unit": "%"},
      {"measurement": "Percent Control", "setting": "kinases (468) [27]", "value": 85, "unit": "%"},
      {"measurement": "Percent Control", "setting": "kinases (468) [28]", "value": 100, "unit": "%"},
      {"measurement": "Percent Control", "setting": "kinases (468) [29]", "value": 94, "unit": "%"},
      {"measurement": "Percent Control", "setting": "kinases (468) [30]", "value": 90, "unit": "%"},
      {"measurement": "Percent Control", "setting": "kinases (468) [31]", "value": 90, "unit": "%"},
      {"measurement": "Percent Control", "setting": "kinases (468) [32]", "value": 96, "unit": "%"},
      {"measurement": "Percent Control", "setting": "kinases (468) [33]", "value": 94, "unit": "%"},
      {"measurement": "Percent Control", "setting": "kinases (468) [34]", "value": 99, "unit": "%"}
    ]}
  ]
}
